From patent US11406640B2, “JAK1 pathway inhibitors for the treatment of chronic lung allograft dysfunction” (Incyte Corporation, priority 2019, dated 2022)
pIC50: −log10 of the molar value. “Also recorded” adds a separate entry of the source. Like-named read-outs stand apart in the source and are kept apart here.

Assays:
[1] = test system: patients with BOS after lung transplantation; settings: cited from earlier work
human JAK1 = human JAK1 (Homo sapiens, UniProt P23458); assay: In vitro JAK kinase assay (Example A), JAK1; type: biochemical; settings: 1 mM ATP
Excerpt: In some embodiments, the JAK1 pathway inhibitor is a compound of Table 2, or a pharmaceutically acceptable salt thereof.

human JAK2 = human JAK2 (Homo sapiens (Human), UniProt O60674); assay: In vitro JAK kinase assay (Example A), JAK2; type: biochemical; settings: JAK2/JAK1 IC50 ratio, 1 mM ATP
human JAK2, sequence (O60674 828-1132): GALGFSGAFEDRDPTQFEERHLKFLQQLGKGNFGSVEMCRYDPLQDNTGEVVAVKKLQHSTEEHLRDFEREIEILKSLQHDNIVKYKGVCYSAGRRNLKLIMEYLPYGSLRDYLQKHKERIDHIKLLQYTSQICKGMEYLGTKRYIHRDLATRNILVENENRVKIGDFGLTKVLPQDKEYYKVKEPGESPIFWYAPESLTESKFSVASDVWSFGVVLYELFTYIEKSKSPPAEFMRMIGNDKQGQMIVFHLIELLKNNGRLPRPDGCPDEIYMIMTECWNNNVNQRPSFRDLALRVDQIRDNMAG
Protocol: The compounds in Table 2 were tested in this assay and shown to have the IC50 values in Table 2.

[2] = test system: pediatric patients with lung cGVHD; settings: cited from earlier work
patients with aGVHD = settings: human, in vivo, cited from earlier work
patients with lung cGVHD = settings: response defined by an increase in FEV1 of ≥10%; cited from earlier work
patients with cGVHD = settings: human, in vivo; cited from earlier work
[3] = test system: patients with post-lung transplant BOS; settings: switching from cyclosporine to tacrolimus; cited from earlier work
post-lung transplant BOS = settings: prophylactic, compared to placebo; cited from earlier work
[4] = test system: patients with post-lung transplant BOS; settings: patients with an FEV1 response vs those without; cited from earlier work
[5] = test system: alloreactive mouse model (GVHD); settings: prophylactic and therapeutic dosing, 60 mg/kg per day or 120 mg/kg per day; cited from earlier work

| pIC50 (human JAK1) | JAK2/JAK1 (human JAK2) | Compound | further results |
| --- | --- | --- | --- |
| > 8.00 | >10 | C[C@@H](CO)NCc1cc(OC2CCN([C@H]3C[C@](CC#N)(n4cc(-c5ncnc6[nH]ccc56)cn4)C3)CC2)nc(C(F)(F)F)c1 [Compound 23, {trans-3-(4-{[4-({[(1S)-2-hydroxy-1-methylethyl]amino}methyl)-6-(trifluoromethyl)pyridin-2-yl]oxy}piperidin-1-yl)-1-[4-(7H-pyrrolo[2,3-d]pyrimidin-4-yl)-1H-pyrazol-1-yl]cyclobutyl}acetonitrile] | – |
| > 8.00 | >10 | C[C@H](O)CNCc1cc(OC2CCN([C@H]3C[C@](CC#N)(n4cc(-c5ncnc6[nH]ccc56)cn4)C3)CC2)nc(C(F)(F)F)c1 [Compound 25, {trans-3-(4-{[4-({[(2S)-2-hydroxypropyl]amino}methyl)-6-(trifluoromethyl)pyridin-2-yl]oxy}piperidin-1-yl)-1-[4-(7H-pyrrolo[2,3-d]pyrimidin-4-yl)-1H-pyrazol-1-yl]cyclobutyl}acetonitrile] | – |
| > 8.00 | >10 | CC(C)(O)c1cc(O[C@H]2CC[C@@H](N3CC(CC#N)(n4cc(-c5ncnc6[nH]ccc56)cn4)C3)CC2)nc(C(F)(F)F)c1 [Compound 20, {1-(cis-4-{[4-(1-hydroxy-1-methylethyl)-6-(trifluoromethyl)pyridin-2-yl]oxy}cyclohexyl)-3-[4-(7H-pyrrolo[2,3-d]pyrimidin-4-yl)-1H-pyrazol-1-yl]azetidin-3-yl}acetonitrile] | – |
| > 8.00 | >10 | C[C@@H](O)CNCc1cc(OC2CCN([C@H]3C[C@](CC#N)(n4cc(-c5ncnc6[nH]ccc56)cn4)C3)CC2)nc(C(F)(F)F)c1 [Compound 24, {trans-3-(4-{[4-({[(2R)-2-hydroxypropyl]amino}methyl)-6-(trifluoromethyl)pyridin-2-yl]oxy}piperidin-1-yl)-1-[4-(7H-pyrrolo[2,3-d]pyrimidin-4-yl)-1H-pyrazol-1-yl]cyclobutyl}acetonitrile] | – |
| > 8.00 | >10 | N#CCC1(n2cc(-c3ncnc4[nH]ccc34)cn2)CN([C@H]2CC[C@@H](Oc3cc(CN4CC[C@@H](O)C4)cc(C(F)(F)F)n3)CC2)C1 [Compound 21, {1-(cis-4-{[4-{[(3R)-3-hydroxypyrrolidin-1-yl]methyl}-6-(trifluoromethyl)pyridin-2-yl]oxy}cyclohexyl)-3-[4-(7H-pyrrolo[2,3-d]pyrimidin-4-yl)-1H-pyrazol-1-yl]azetidin-3-yl}acetonitrile] | – |

Further lines, the compound ahead of its results:

| Compound | pIC50 (human JAK1) | JAK2/JAK1 (human JAK2) | further results |
| --- | --- | --- | --- |
| CC(C)(O)c1ccccc1CC[C@@H](SCC1(CC(=O)O)CC1)c1cccc(/C=C/c2ccc3ccc(Cl)cc3n2)c1 [Montelukast] | – | – | effect on lung function decline ([1]; overall cohort, 30 patients randomized vs placebo): no effect on lung function decline; decline of FEV1 ([1]; post-hoc subanalysis of BOS grade 1 patients, absolute and predicted FEV1): attenuated further decline of FEV1 |
| N#CC[C@]1(n2cc(-c3ncnc4[nH]ccc34)cn2)C[C@H](N2CCC(Oc3cc(CN4CC(O)C4)cc(C(F)(F)F)n3)CC2)C1 [Compound 11, {trans-3-(4-{[4-[(3-hydroxyazetidin-1-yl)methyl]-6-(trifluoromethyl)pyridin-2-yl]oxy}piperidin-1-yl)-1-[4-(7H-pyrrolo[2,3-d]pyrimidin-4-yl)-1H-pyrazol-1-yl]cyclobutyl}acetonitrile] | > 8.00 | >10 | – |
| N#CC[C@H](C1CCCC1)n1cc(-c2ncnc3[nH]ccc23)cn1 [ruxolitinib] | – | – | increase in FEV1 ([2]; 1 patient): 9%; responses ([2]; 5 pediatric patients (4 evaluable)): 2; decrease of the steroid requirement ([2]; final patient): > 50%; patients able to wean steroids completely ([2]; human, in vivo): Four out of five; clinical efficacy in acute GVHD (patients with aGVHD): demonstrated clinical efficacy; patients with FEV1 responses (patients with lung cGVHD): 4 out of 5; clinical efficacy in chronic GVHD (patients with cGVHD): produced clinical efficacy |
| N#CCC1(n2cc(-c3ncnc4[nH]ccc34)cn2)CN([C@H]2CC[C@@H](Oc3cc(CCO)nc(C(F)(F)F)n3)CC2)C1 [Compound 18, {1-(cis-4-{[6-(2-hydroxyethyl)-2-(trifluoromethyl)pyrimidin-4-yl]oxy}cyclohexyl)-3-[4-(7H-pyrrolo[2,3-d]pyrimidin-4-yl)-1H-pyrazol-1-yl]azetidin-3-yl}acetonitrile] | > 8.00 | >10 | – |
| C=CC[C@@H]1/C=C(\C)C[C@H](C)C[C@H](OC)[C@H]2O[C@@](O)(C(=O)C(=O)N3CCCC[C@H]3C(=O)O[C@H](/C(C)=C/[C@@H]3CC[C@@H](O)[C@H](OC)C3)[C@H](C)[C@@H](O)CC1=O)[C@H](C)C[C@@H]2OC [tacrolimus] | – | – | loss of predicted FEV1 [3]: decrease in the loss of predicted FEV1 |
| CC[C@H]1OC(=O)[C@H](C)[C@@H](O[C@H]2C[C@@](C)(OC)[C@@H](O)[C@H](C)O2)[C@H](C)[C@@H](O[C@@H]2O[C@H](C)C[C@H](N(C)C)[C@H]2O)[C@](C)(O)C[C@@H](C)CN(C)[C@H](C)[C@@H](O)[C@]1(C)O [Azithromycin] | – | – | cases of BOS (post-lung transplant BOS): fewer cases of BOS; overall survival (post-lung transplant BOS): overall survival was not affected; overall survival [4]: overall survival advantage |
| C[C@@H](O)c1nc2cnc3ccsc3c2n1[C@H]1CC[C@H](CC#N)OC1 [Compound 5, ((2R,5S)-5-{2-[(1R)-1-hydroxyethyl]-1H-imidazo[4,5-d]thieno[3,2-b]pyridin-1-yl}tetrahydro-2H-pyran-2-yl)acetonitrile] | > 7.00 | >10 | – |
| N#CCC1(n2cc(-c3ncnc4[nH]ccc34)cn2)CN(C2CCN(C(=O)c3ccnc(C(F)(F)F)c3F)CC2)C1 [Compound 1, {1-{1-[3-Fluoro-2-(trifluoromethyl)isonicotinoyl]piperidin-4-yl}-3-[4-(7H-pyrrolo[2,3-d]pyrimidin-4-yl)-1H-pyrazol-1-yl]azetidin-3-yl}acetonitrile] | > 8.00 | >10 | clinical efficacy in acute GVHD (patients with aGVHD; listed as itacitinib): demonstrated clinical efficacy; also recorded: significant clinical activity; GVHD score [5]: improvement in the GVHD score |
| N#CCC(C1CCN(c2nc3cccnc3o2)C1)n1cc(-c2ncnc3[nH]ccc23)cn1 (centres unmarked) [Compound 7, 3-(1-[1,3]oxazolo[5,4-b]pyridin-2-ylpyrrolidin-3-yl)-3-[4-(7H-pyrrolo[2,3-d]pyrimidin-4-yl)-1H-pyrazol-1-yl]propanenitrile] | > 8.00 | >10 | – |
| N#CC[C@]1(n2cc(-c3ncnc4[nH]ccc34)cn2)C[C@H](N2CCC(Oc3cc(CN4CCC[C@H]4CO)cc(C(F)(F)F)n3)CC2)C1 [Compound 12, {trans-3-(4-{[4-{[(2S)-2-(hydroxymethyl)pyrrolidin-1-yl]methyl}-6-(trifluoromethyl)pyridin-2-yl]oxy}piperidin-1-yl)-1-[4-(7H-pyrrolo[2,3-d]pyrimidin-4-yl)-1H-pyrazol-1-yl]cyclobutyl}acetonitrile] | > 8.00 | >10 | – |
| N#CC[C@]1(n2cc(-c3ncnc4[nH]ccc34)cn2)C[C@H](N2CCN(C(=O)c3ccnc(C(F)(F)F)n3)CC2)C1 [Compound 10, [trans-1-[4-(7H-pyrrolo[2,3-d]pyrimidin-4-yl)-1H-pyrazol-1-yl]-3-(4-{[2-(trifluoromethyl)pyrimidin-4-yl]carbonyl}piperazin-1-yl)cyclobutyl]acetonitrile] | > 8.00 | >10 | – |
| N#CCC1(n2cc(-c3ncnc4[nH]ccc34)cn2)CN(C2CCN(C(=O)c3ccnc(C(F)(F)F)n3)CC2)C1 [Compound 3, [3-[4-(7H-pyrrolo[2,3-d]pyrimidin-4-yl)-1H-pyrazol-1-yl]-1-(1-{[2-(trifluoromethyl)pyrimidin-4-yl]carbonyl}piperidin-4-yl)azetidin-3-yl]acetonitrile] | > 8.00 | >10 | – |
